Converted amounts (≈) assume the structure as drawn.
Columns and labels:
Assay type in all cases: cell-based
[1] = system: Mycobacterium avium ATCC 25291; test: Microplate Alamar Blue assay (MABA) MIC, M. avium; settings: ATCC25291, M. avium ATCC 25291
Source text: (§1) Minimal inhibitory concentrations (MICs) in Mycobacterium tuberculosis H37Rv and Mycobacterium avium ATCC 25291 were quantified using microplate Alamar Blue assays as described (MABA; [Collins, L. & Franzblau, S. (1997) Microplate Alamar Blue assay versus BACTEC 460 system for high-throughput screening of compounds against Mycobacterium tuberculosis and Mycobacterium avium. Antimicrob. Agents Chemother. 41, 1004-1009]).

[2] = system: Mycobacterium smegmatis ATCC 19420; test: Broth microdilution MIC, M. smegmatis; settings: Mycolicibacterium smegmatis, ATCC19420, M. smegmatis ATCC 19420; read-out: MIC Mycobacterium smegmatis ATCC 19420
Source text: MICs in Mycobacterium smegmatis ATCC 19420 and Mycobacterium smegmatis ATCC 19420 derivatives were quantified using broth microdilution assays as described [Clinical and Laboratory Standards Institute (CLSI/NCCLS) (2009) Methods for Dilution Antimicrobial Susceptibility Tests for Bacteria That Grow Aerobically; Approved Standard, Eighth Edition. CLIS Document M07-A8 (CLIS, Wayne Pa.)].

[3] = system: Mycobacterium tuberculosis H37Rv; test: Microplate Alamar Blue assay (MABA) MIC, M. tuberculosis; settings: read-out: MIC Mycobacterium tuberculosis H37Rv
Source text: as §1

[4] = system: Vero E6 ATCC CRL1586 cells; test: Mammalian-cell cytotoxicity, minimal cytotoxic concentration (CellTiter96)
Protocol: Minimal cytotoxic concentrations (MCCs) against mammalian cells in culture were determined using Vero E6 ATCC CRL1586 cells and the CellTiter96 assay kit (Promega, Inc.). […]

| SMILES | MIC [1] | MIC [2] | MIC [3] | MCC mammalian cells Vero E6 ATCC CRL1586 [4] |
| --- | --- | --- | --- | --- |
| O=C(NC(Cc1ccccc1)C(=O)Nc1ccccc1N1CCOCC1)c1ccccc1F (centres unmarked) [IX-152, 2-fluoro-N-(1-((2-morpholinophenyl)amino)-1-oxo-3-phenylpropan-2-yl)benzamide] | 3.12 µg/mL (≈ 6.98 µM) | 0.073 µg/mL (≈ 0.163 µM) | 1.56 µg/mL (≈ 3.49 µM) | 90 µg/mL |
| Cc1ccccc1C(=O)NC(Cc1ccccc1)C(=O)Nc1ccccc1N1CCOCC1 (centres unmarked) [IX-153, 2-methyl-N-(1-((2-morpholinophenyl)amino)-1-oxo-3-phenylpropan-2-yl)benzamide] | 1.56 µg/mL (≈ 3.52 µM) | 0.036 µg/mL (≈ 0.0812 µM) | 0.78 µg/mL (≈ 1.76 µM) | 84 µg/mL |
| O=C(NC(Cc1ccc(O)cc1)C(=O)Nc1ccccc1N1CCOCC1)c1ccccc1 (centres unmarked) [IX-154, N-(3-(4-hydroxyphenyl)-1-((2-morpholinophenyl)amino)-1-oxo-propan-2-yl)benzamide] | 1.56 µg/mL (≈ 3.5 µM) | 0.095 µg/mL (≈ 0.213 µM) | 1.56 µg/mL (≈ 3.5 µM) | >100 µg/mL |
| O=C(NC(Cc1ccc(O)cc1)C(=O)Nc1ccccc1N1CCOCC1)c1ccccc1F (centres unmarked) [IX-155, 2-fluoro-N-(3-(4-hydroxyphenyl)-1-((2-morpholinophenyl)amino)-1-oxopropan-2-yl)benzamide] | 12.5 µg/mL (≈ 27 µM) | 0.195 µg/mL (≈ 0.421 µM) | 1.56 µg/mL (≈ 3.37 µM) | 77 µg/mL |
| Cc1ccccc1C(=O)NC(Cc1ccc(O)cc1)C(=O)Nc1ccccc1N1CCOCC1 (centres unmarked) [IX-156, N-(3-(4-hydroxyphenyl)-1-((2-morpholinophenyl)amino)-1-oxopropan-2-yl)-2-methylbenzamide] | 3.12 µg/mL (≈ 6.8 µM) | 0.095 µg/mL (≈ 0.207 µM) | 1.56 µg/mL (≈ 3.39 µM) | 81 µg/mL |
| O=C(NC(Cc1ccccc1)C(=O)Nc1cc(F)ccc1N1CCOCC1)c1ccccc1 (centres unmarked) [IX-157, N-(1-((5-fluoro-2-morpholinophenyl)amino)-1-oxo-3-phenylpropan-2-yl)benzamide] | 1.56 µg/mL (≈ 3.49 µM) | 0.047 µg/mL (≈ 0.105 µM) | 0.78 µg/mL (≈ 1.74 µM) | 48 µg/mL |
| O=C(NC(Cc1ccccc1)C(=O)Nc1cc(F)ccc1N1CCOCC1)c1ccccc1F (centres unmarked) [IX-158, 2-fluoro-N-(1-((5-fluoro-2-morpholinophenyl)amino)-1-oxo-3-phenyl-propan-2-yl)benzamide] | 0.78 µg/mL (≈ 1.68 µM) | 0.097 µg/mL (≈ 0.208 µM) | 0.78 µg/mL (≈ 1.68 µM) | >100 µg/mL |
| Cc1ccccc1C(=O)NC(Cc1ccccc1)C(=O)Nc1cc(F)ccc1N1CCOCC1 (centres unmarked) [IX-159, N-(1-((5-fluoro-2-morpholinophenyl)amino)-1-oxo-3-phenylpropan-2-yl)-2-methylbenzamide] | 0.39 µg/mL (≈ 0.845 µM) | 0.047 µg/mL (≈ 0.102 µM) | 0.39 µg/mL (≈ 0.845 µM) | 10 µg/mL |
| O=C(NC(Cc1ccccc1)C(=O)Nc1cc(F)ccc1N1CCOCC1)c1cccs1 (centres unmarked) [IX-160, N-(1-((5-fluoro-2-morpholinophenyl)amino)-1-oxo-3-phenylpropan-2-yl)thiophene-2-carboxamide] | 0.78 µg/mL (≈ 1.72 µM) | 0.097 µg/mL (≈ 0.214 µM) | 0.78 µg/mL (≈ 1.72 µM) | 30 µg/mL |
| O=C(NC(Cc1ccc(O)cc1)C(=O)Nc1cccc2c1OCCO2)c1ccccc1Br (centres unmarked) [IX-176, 2-bromo-N-(1-((2,3-dihydrobenzo[b][1,4]dioxin-5-yl)amino)-3-(4-hydroxyphenyl)-1-oxopropan-2-yl)benzamide] | 6.25 µg/mL (≈ 12.6 µM) | 3.1 µg/mL (≈ 6.23 µM) | 6.25 µg/mL (≈ 12.6 µM) | 100.0 µg/mL |
| O=C(NC(Cc1ccccc1)C(=O)Nc1cc(F)ccc1OCF)c1ccccc1F (centres unmarked) [IX-177, 2-fluoro-N-(1-((5-fluoro-2-(fluoromethoxy)phenyl)amino)-1-oxo-3-phenylpropan-2-yl)benzamide] | 0.78 µg/mL (≈ 1.82 µM) | 0.39 µg/mL (≈ 0.91 µM) | 0.39 µg/mL (≈ 0.91 µM) | >100 µg/mL |
| CC(=O)Oc1ccc(CC(NC(=O)c2ccccc2F)C(=O)Nc2ccccc2N2CCOCC2)cc1 (centres unmarked) [IX-180, 4-(2-(2-fluorobenzamido)-3-((2-morpholinophenyl)amino)-3-oxopropyl)phenyl acetate] | 6.25 µg/mL | 0.097 µg/mL | 1.56 µg/mL | 91 µg/mL |
| CC(=O)Oc1ccc(CC(NC(=O)c2ccccc2C)C(=O)Nc2ccccc2N2CCOCC2)cc1 (centres unmarked) [IX-181, 4-(2-(2-methylbenzamido)-3-((2-morpholinophenyl)amino)-3-oxopropyl)phenyl acetate] | 3.12 µg/mL | 0.097 µg/mL | 0.78 µg/mL | 84 µg/mL |
| CC(=O)Oc1ccc(CC(NC(=O)c2cccs2)C(=O)Nc2ccccc2N2CCOCC2)cc1 (centres unmarked) [IX-182, 4-(3-((2-morpholinophenyl)amino)-3-oxo-2-(thiophene-2-carbox-amido)propyl)phenyl acetate] | 3.12 µg/mL | 0.097 µg/mL | 0.78 µg/mL | 99 µg/mL |
| O=C(NC(Cc1ccc(O)cc1)C(=O)Nc1ccccc1N1CCOCC1)c1cccs1 (centres unmarked) [IX-183, N-(3-(4-hydroxyphenyl)-1-((2-morpholinophenyl)amino)-1-oxopropan-2-yl)thiophene-2-carboxamide] | 6.25 µg/mL (≈ 13.8 µM) | 0.097 µg/mL (≈ 0.215 µM) | 1.56 µg/mL (≈ 3.45 µM) | >100 µg/mL |
| Cc1ccc(F)cc1NC(=O)C(Cc1ccc(O)cc1)NC(=O)c1ccccc1F (centres unmarked) [IX-184, 2-fluoro-N-(1-((5-fluoro-2-methylphenyl)amino)-3-(4-hydroxy-phenyl)-1-oxopropan-2-yl)benzamide] | 3.12 µg/mL (≈ 7.61 µM) | 0.39 µg/mL (≈ 0.95 µM) | 1.56 µg/mL (≈ 3.8 µM) | 77 µg/mL |
| Cc1ccc(F)cc1NC(=O)C(Cc1ccc(O)cc1)NC(=O)c1ccccc1C (centres unmarked) [IX-186, N-(1-((5-fluoro-2-methylphenyl)amino)-3-(4-hydroxyphenyl)-1-oxopropan-2-yl)-2-methylbenzamide] | 3.12 µg/mL (≈ 7.69 µM) | 0.39 µg/mL (≈ 0.96 µM) | 1.56 µg/mL (≈ 3.84 µM) | 78 µg/mL |
| Cc1ccc(F)cc1NC(=O)C(Cc1ccc(O)cc1)NC(=O)c1cccs1 (centres unmarked) [IX-188, N-(1-((5-fluoro-2-methylphenyl)amino)-3-(4-hydroxyphenyl)-1-oxopropan-2-yl)thiophene-2-carboxamide] | 1.56 µg/mL (≈ 3.92 µM) | 0.097 µg/mL (≈ 0.243 µM) | 1.56 µg/mL (≈ 3.92 µM) | 48 µg/mL |
| Cc1ccccc1C(=O)NC(Cc1ccccc1)C(=O)Nc1cccc2[nH]ncc12 (centres unmarked) [IX-191, N-(1-((1H-indazol-4-yl)amino)-1-oxo-3-phenylpropan-2-yl)-2-methyl-benzamide] | 12.5 µg/mL (≈ 31.4 µM) | 0.39 µg/mL (≈ 0.979 µM) | 12.5 µg/mL (≈ 31.4 µM) | >100 µg/mL |
| O=C(NC(Cc1ccccc1)C(=O)Nc1cccc2[nH]ncc12)c1cccs1 (centres unmarked) [IX-201, N-(1-((1H-indazol-4-yl)amino)-1-oxo-3-phenylpropan-2-yl)thiophene-2-carboxamide] | 12.5 µg/mL (≈ 32 µM) | 0.09 µg/mL (≈ 0.23 µM) | 25 µg/mL (≈ 64 µM) | 47 µg/mL |
| COc1ccc(F)cc1NC(=O)C(Cc1ccc(O)cc1)NC(=O)c1ccccc1 (centres unmarked) [IX-203, N-(1-((5-fluoro-2-methoxyphenyl)amino)-3-(4-hydroxyphenyl)-1-oxopropan-2-yl)benzamide] | 0.78 µg/mL (≈ 1.91 µM) | 0.195 µg/mL (≈ 0.477 µM) | 0.78 µg/mL (≈ 1.91 µM) | >100 µg/mL |
| COc1ccc(F)cc1NC(=O)C(Cc1ccc(O)cc1)NC(=O)c1ccccc1C (centres unmarked) [IX-205, N-(1-((5-fluoro-2-methoxyphenyl)amino)-3-(4-hydroxyphenyl)-1-oxopropan-2-yl)-2-methylbenzamide] | 0.78 µg/mL (≈ 1.85 µM) | 0.39 µg/mL (≈ 0.923 µM) | 0.78 µg/mL (≈ 1.85 µM) | 70 µg/mL |
| COc1ccc(F)cc1NC(=O)C(Cc1ccc(O)cc1)NC(=O)c1cccs1 (centres unmarked) [IX-206, N-(1-((5-fluoro-2-methoxyphenyl)amino)-3-(4-hydroxyphenyl)-1-oxopropan-2-yl)thiophene-2-carboxamide] | 0.39 µg/mL (≈ 0.941 µM) | 0.195 µg/mL (≈ 0.47 µM) | 0.78 µg/mL (≈ 1.88 µM) | 70 µg/mL |
| O=C(NC(Cc1ccc(O)cc1)C(=O)Nc1ccccc1N1CCNCC1)c1cccs1 (centres unmarked) [IX-219, N-(3-(4-hydroxyphenyl)-1-oxo-1-((2-(piperazin-1-yl)phenyl)amino)-propan-2-yl)thiophene-2-carboxamide] | 3.12 µg/mL (≈ 6.94 µM) | 0.78 µg/mL (≈ 1.73 µM) | 1.56 µg/mL (≈ 3.46 µM) | 69 µg/mL |
| O=C(NC(Cc1ccc(O)cc1)C(=O)Nc1cc(F)ccc1N1CCNCC1)c1cccs1 (centres unmarked) [IX-222, N-(1-((5-fluoro-2-(piperazin-1-yl)phenyl)amino)-3-(4-hydroxyphen-yl)-1-oxopropan-2-yl)thiophene-2-carboxamide] | 1.56 µg/mL (≈ 3.33 µM) | 0.78 µg/mL (≈ 1.66 µM) | 1.56 µg/mL (≈ 3.33 µM) | 38 µg/mL |
| O=C(NC(Cc1ccccc1)C(=O)Nc1cccc2[nH]nnc12)c1ccccc1 (centres unmarked) [IX-223, N-(1-((1H-benzo[d][1,2,3]triazol-4-yl)amino)-1-oxo-3-phenylpropan-2-yl)benzamide] | 50 µg/mL (≈ 130 µM) | 0.78 µg/mL (≈ 2.02 µM) | 25 µg/mL (≈ 64.9 µM) | 64 µg/mL |
